Measured values as given in the RepoRT retention time repository (doi:10.1016/j.foodchem.2021.129757).

Legend:
Conditions in all cases: stereoisomer not certain
[1] = RP, 150 × 2.1 mm, 2.6 µm, 40 °C, 0.35 mL/min, estimated dead time 0.94 min; A: water + 0.1% formic acid, pH 3; B: acetonitrile + 0.1% formic acid, pH 3; gradient (min/%B) 0/0 1/0 12.5/100 14/100 14.2/0 15/0
[2] = RP, 150 × 2.1 mm, 2.6 µm, 40 °C, 0.35 mL/min, estimated dead time 0.94 min; A: water + 0.1% formic acid, pH 3; B: acetonitrile + 0.1% formic acid, pH 3; gradient (min/%B) 0/0 1/5 7/45 8.5/80 10.5/80 11/5 12/5
[3] = RP, Waters ACQUITY UPLC BEH C18, 100 × 2.1 mm, 1.7 µm, 65 °C, 0.4 mL/min, estimated dead time 0.55 min; A: water + 0.1% formic acid, pH 3; B: 80% acetonitrile + 20% acetone + 0.1% formic acid, pH 3; gradient (min/%B) 0/0 5/100 5.5/0 6/0
[4] = RP, Agilent ZORBAX RRHD Eclipse Plus C18, 50 × 2.1 mm, 1.8 µm, 30 °C, 0.4 mL/min, estimated dead time 0.28 min; A: water + 0.1% formic acid, pH 3; B: acetonitrile + 0.1% formic acid, pH 3; gradient (min/%B) 0/1 5/10 8/25 9.1/99 10/99 12/1
[5] = RP, Agilent ZORBAX RRHD Eclipse Plus C18, 50 × 2.1 mm, 1.8 µm, 30 °C, 0.4 mL/min, estimated dead time 0.28 min; A: water + 0.1% formic acid, pH 3; B: acetonitrile + 0.1% formic acid, pH 3; gradient (min/%B) 0/1 5/10 8/25 9.1/99 10/99 12/99
[6] = RP, Agilent ZORBAX Eclipse XDB-C18, 100 × 2.1 mm, 1.8 µm, 50 °C, 0.4 mL/min, estimated dead time 0.55 min; A: water + 0.1% formic acid, pH 3; B: methanol + 0.1% formic acid, pH 3; gradient (min/%B) 0/2 10/100 14.5/100 14.51/2 16.5/2
[7] = RP, Waters ACQUITY UPLC HSS T3, 100 × 2.1 mm, 50 °C; A: water + 0.1% formic acid, pH 3; B: 30% methanol + 70% acetonitrile + 0.1% formic acid, pH 3; gradient (min/%B) 0/5 1/8 2/15 3/40 4/70 4.5/100 5/100 6.4/100 6.6/5 6.8/5 7/5
[8] = RP, Phenomenex Kinetex EVO C18, 100 × 2.1 mm, 2.6 µm, 40 °C, 0.4 mL/min, estimated dead time 0.55 min; A: water + 0.2% formic acid; B: acetonitrile + 0.2% formic acid; gradient (min/%B) 0/5 0.5/5 7/95 8/95 8.5/5 12/5
[9] = RP, Phenomenex Synergi Hydro-RP, 250 × 2 mm, 4 µm, 25 °C, 0.2 mL/min, estimated dead time 2.5 min; A: water + 0.1% formic acid, pH 3; B: acetonitrile + 0.1% formic acid, pH 3; gradient (min/%B) 0/0.5 7/0.5 12/12.5 25/16.3 47/35 48/65 50/65 50.1/0.5
[10] = RP, Waters ACQUITY UPLC BEH Shield RP18, 150 × 2.1 mm, 1.7 µm, 40 °C, 0.4 mL/min, estimated dead time 0.83 min; A: water + 0.1% formic acid, pH 3; B: acetonitrile + 0.1% formic acid, pH 3; gradient (min/%B) 0/0 30/50 31/100 37/100 37.1/0
[11] = RP, Waters ACQUITY UPLC HSS T3, 100 × 2.1 mm, 1.8 µm, 30 °C, 0.4 mL/min, estimated dead time 0.55 min; A: water + 0.1% formic acid, pH 3; B: acetonitrile + 0.1% formic acid, pH 3; gradient (min/%B) 0/0 2/0 15/100 22/100 22.1/0 26/0

| SMILES | LC retention time [1] | LC retention time [2] | other results |
| --- | --- | --- | --- |
| NCC(=O)c1ccccc1 [2 aminoacetophenone] | 6.84 min | 6.86 min |  |
| O=C(O)CNC(=O)c1ccco1 [2-Furoylglycine] | 2.51 min | 2.35 min | LC retention time [3]: 1.51 min |
| O=C(O)CNC(=O)c1ccccc1O [2-Hydroxyhippuric acid] | 5.5 min | 5.38 min | LC retention time [4]: 6.83 min; LC retention time [5]: 6.69 min |
| O=C(O)c1cc2ccccc2[nH]1 [2-Indolecarboxylic acid] | 6.06 min | 6.07 min |  |
| O=C(O)C(O)CCc1ccccc1 (centres undefined) [2-hydroxy-4-phenylbutyric acid] | 6.54 min | 6.6 min |  |
| COc1cc(CCC(=O)O)cc(OC)c1OC [3-(3,4,5-Trimethoxyphenyl)propionic acid] | 6.58 min | 6.73 min |  |
| Nc1c(O)cccc1C(=O)O [3-Hydroxyanthranilic acid] | 3.21 min | 2.89 min |  |
| NC(=O)Cc1c[nH]c2ccccc12 [3-Indoleacetamide] | 5.28 min | 5.15 min |  |
| O=C(O)CCCc1c[nH]c2ccccc12 [3-Indolebutyric acid] | 7.63 min | 7.97 min |  |
| O=C(O)CCc1c[nH]c2ccccc12 [3-Indolepropionic acid] | 7.09 min | 7.34 min | LC retention time [6]: 5.54 min; LC retention time [7]: 3.76 min; LC retention time [3]: 2.64 min |
| COc1cccc(O)c1O [3-Methoxycatechol] | 4.79 min | 4.56 min | LC retention time [6]: 3.2 min |
| O=c1cc(O)c2ccccc2o1 [4-hydroxycoumarin] | 6.51 min | 6.59 min |  |
| Cc1cc(=O)oc2cc(O)ccc12 [4-methylumbelliferone] | 6.41 min | 6.46 min |  |
| O=C1CCC(Cc2ccc(O)c(O)c2)O1 (centres undefined) [5-(3',4'-Dihydroxyphenyl)-gamma-valerolactone] |  |  | LC retention time [8]: 4.13 min |
| O=C1CCC(Cc2cc(O)cc(O)c2)O1 (centres undefined) [5-(3',5'-Dihydroxyphenyl)-gamma-valerolactone] |  |  | LC retention time [8]: 3.72 min |
| O=C1CCC(Cc2ccc(O)c(OS(=O)(=O)O)c2)O1 (centres undefined) [5-(4'-Hydroxyphenyl)-gamma-valerolactone-3'-sulfate] |  |  | LC retention time [8]: 4.64 min |

| SMILES | LC retention time [1] | LC retention time [2] | other results |
| --- | --- | --- | --- |
| O=C1CCC(Cc2cc(O)cc(OC3OC(C(=O)O)C(O)C(O)C3O)c2)O1 (centres undefined) [5-(5'-Hydroxyphenyl)-gamma-valerolactone-3'-glucuronide] |  |  | LC retention time [8]: 2.34 min |
| COc1ccc2[nH]cc(CC(=O)O)c2c1 [5-Methoxyindoleacetic acid] | 6.26 min | 6.29 min |  |
| O=C1CCC(Cc2cccc(OC3OC(C(=O)O)C(O)C(O)C3O)c2)O1 (centres undefined) [5-Phenyl-gamma-valerolactone-3'-glucuronide] |  |  | LC retention time [8]: 4.31 min |
| O=C1CCC(Cc2cccc(OS(=O)(=O)O)c2)O1 (centres undefined) [5-Phenyl-gamma-valerolactone-3'-sulfate] |  |  | LC retention time [8]: 4.96 min |
| COc1cc2c(CCNC(C)=O)c[nH]c2cc1O [6-Hydroxymelatonin] | 5.14 min | 5.05 min |  |
| CC(C=CC1(O)C(C)=CC(=O)CC1(C)C)=CC(=O)O (centres undefined) [Abscisic acid] | 6.9 min | 7.12 min |  |
| O=C(NC(O)C(=O)O)c1ccccc1 (stereo not drawn) [Alpha-hydroxyhippuric acid] | 3.62 min | 3.34 min | LC retention time [4]: 2.97 min; LC retention time [5]: 1.37 min |
| O=c1ccc2cc(OC3OC(CO)C(O)C(O)C3O)c(O)cc2o1 (centres undefined) [Esculin] | 4.11 min | 3.94 min |  |
| COc1cc(C=CC(=O)NCC(=O)O)ccc1O [Feruloylglycine] |  |  | LC retention time [8]: 4.33 min |
| O=C(O)c1ccc(OC2OC(C(=O)O)C(O)C(O)C2O)cc1 (centres undefined) [Hydroxybenzoic acid-4-glucuronide] |  |  | LC retention time [8]: 1.06 min |
| O=C(O)c1ccc(OS(=O)(=O)O)cc1 [Hydroxybenzoic acid-4-sulfate] |  |  | LC retention time [8]: 2.55 min |
| COc1cc(-c2oc3cc(O)cc(O)c3c(=O)c2O)ccc1OC1OC(C(=O)O)C(O)C(O)C1O (centres undefined) [Isorhamnetin 4'-O-glucuronide] | 6.03 min | 6.21 min | LC retention time [7]: 3.58 min |
| COc1ccc(C(=O)O)cc1OC1OC(C(=O)O)C(O)C(O)C1O (centres undefined) [Isovanillic acid-3-glucuronide] |  |  | LC retention time [8]: 2.34 min |
| O=C1CC(c2ccc(OC3OC(C(=O)O)C(O)C(O)C3O)cc2)Oc2cc(O)cc(O)c21 (centres undefined) [Naringenin-4'-O-glucuronide] |  |  | LC retention time [8]: 5.18 min |
| O=C1CC(c2ccc(O)cc2)Oc2cc(OC3OC(C(=O)O)C(O)C(O)C3O)cc(O)c21 (centres undefined) [Naringenin-7-O-glucuronide] |  |  | LC retention time [8]: 5.12 min |
| NCCc1c[nH]c2ccc(O)cc12 [Serotonin] | 1.54 min | 1.45 min |  |

The next lines start with results.

| LC retention time [1] | LC retention time [2] | SMILES | other results |
| --- | --- | --- | --- |
| 5.78 min | 5.92 min | CC1OC(OCC2OC(Oc3c(-c4ccc(O)cc4)oc4cc(O)cc(O)c4c3=O)C(O)C(O)C2O)C(O)C(O)C1O (centres undefined) [Kaempferol 3-O-rutinoside] | LC retention time [9]: 37 min |
| 5.95 min | 6.11 min | O=c1c(OC2OC(CO)C(O)C(O)C2O)c(-c2ccc(O)cc2)oc2cc(O)cc(O)c12 (centres undefined) [Kaempferol-3-O-glucoside] | LC retention time [10]: 14.7 min |
| 6.29 min | 6.35 min | COc1ccc2[nH]cc(CCNC(C)=O)c2c1 [Melatonin] |  |
| 8.01 min | 8.34 min | COC(=O)Cc1c[nH]c2ccccc12 [Methyl indole acetate] |  |
| 7.64 min | 7.97 min | CCC=CCC1C(=O)CCC1CC(=O)OC (centres undefined) [Methyl jasmonate] | LC retention time [6]: 7.77 min |
| 4.69 min | 4.5 min | CC(=O)NCCc1c[nH]c2ccc(O)cc12 [N-acetylserotonin] |  |
| 6.02 min | 6.17 min | O=C1CC(c2ccc(O)cc2)Oc2cc(OC3OC(CO)C(O)C(O)C3O)cc(O)c21 (centres undefined) [Naringenin 7-O-glucoside] |  |
| 5.3 min | 5.29 min | O=c1cc(-c2ccc(O)c(O)c2)oc2c(C3OC(CO)C(O)C(O)C3O)c(O)cc(O)c12 (centres undefined) [Orientin] |  |
| 5.66 min | 5.74 min | O=c1c(OC2OC(CO)C(O)C(O)C2O)c(-c2ccc(O)c(O)c2)oc2cc(O)cc(O)c12 (centres undefined) [Quercetin-3-O-galactoside] |  |
| 6 min | 6.17 min | COc1cc(-c2oc3cc(O)cc(O)c3c(=O)c2OC2OC(CO)C(O)C(O)C2O)cc(OC)c1O (centres undefined) [Syringetin-3-glucoside] |  |
| 4.73 min | 4.57 min | O=S(=O)(O)c1[nH]c2ccccc2c1CCO [Tryptophol-2-sulfonate] |  |
| 6.45 min | 6.48 min | OCCc1c[nH]c2ccccc12 [Tryptophol] |  |
| 5.77 min | 7.69 min | O=c1ccc2ccc(O)cc2o1 [Umbelliferone] | LC retention time [11]: 9.65 min |
| 4.3 min | 4.06 min | O=C(O)c1cc(=O)c2ccccc2[nH]1 [kynurenic acid] |  |
